The results in this text go back to patent US5010086A, “Imidazopyridines, compositions and use” (Sterling Drug Inc., priority 1990, dated 1991).

Assay type in all cases: biochemical, canine
Experiment [1] concerns the target T1, PDE III (Canis lupus familiaris, UniProt A0A8I3NYE0).
T1 construct: isolated from canine aortic smooth, ventricular or tracheal smooth muscle sources; from tissue; host or cells: canine aortic smooth, ventricular or tracheal smooth muscle; DEAE-cellulose peak III
T1 sequence (A0A8I3NYE0 1-1135): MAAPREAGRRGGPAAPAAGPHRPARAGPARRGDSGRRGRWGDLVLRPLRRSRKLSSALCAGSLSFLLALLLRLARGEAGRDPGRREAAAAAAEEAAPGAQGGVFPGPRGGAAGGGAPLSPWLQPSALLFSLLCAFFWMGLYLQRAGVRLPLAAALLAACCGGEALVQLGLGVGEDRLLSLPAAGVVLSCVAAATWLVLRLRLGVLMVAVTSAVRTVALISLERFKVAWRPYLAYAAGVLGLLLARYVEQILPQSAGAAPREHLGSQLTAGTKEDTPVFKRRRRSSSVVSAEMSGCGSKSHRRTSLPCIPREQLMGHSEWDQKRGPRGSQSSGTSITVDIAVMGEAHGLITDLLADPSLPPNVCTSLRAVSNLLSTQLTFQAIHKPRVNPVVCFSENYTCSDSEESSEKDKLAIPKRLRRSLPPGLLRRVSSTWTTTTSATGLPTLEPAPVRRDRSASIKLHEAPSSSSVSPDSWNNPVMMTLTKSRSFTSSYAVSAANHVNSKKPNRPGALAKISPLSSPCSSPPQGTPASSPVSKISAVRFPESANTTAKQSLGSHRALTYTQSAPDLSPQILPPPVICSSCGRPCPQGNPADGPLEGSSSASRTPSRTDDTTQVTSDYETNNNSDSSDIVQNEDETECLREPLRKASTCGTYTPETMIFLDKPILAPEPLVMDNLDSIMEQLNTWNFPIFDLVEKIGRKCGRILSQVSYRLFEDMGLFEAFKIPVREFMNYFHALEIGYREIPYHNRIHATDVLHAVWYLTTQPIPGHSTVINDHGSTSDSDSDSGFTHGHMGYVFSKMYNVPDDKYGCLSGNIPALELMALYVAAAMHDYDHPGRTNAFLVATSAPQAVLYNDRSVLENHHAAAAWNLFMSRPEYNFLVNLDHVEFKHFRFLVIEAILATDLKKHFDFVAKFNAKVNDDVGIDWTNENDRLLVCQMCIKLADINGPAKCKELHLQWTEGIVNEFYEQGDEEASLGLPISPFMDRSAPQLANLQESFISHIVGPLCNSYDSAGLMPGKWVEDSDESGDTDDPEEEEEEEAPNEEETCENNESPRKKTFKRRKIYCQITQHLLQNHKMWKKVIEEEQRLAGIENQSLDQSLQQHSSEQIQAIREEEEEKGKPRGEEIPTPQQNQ
Put plainly: phosphodiesterase inhibition, PDE III (peak III PDE). The source says: (§1) Multiple isozymic forms of cyclic nucleotide phosphodiesterase (PDE) exist in most tissues. […] A "low Km" cGMP form of PDE (also referred to as peak I PDE) also has been identified. Increases in cAMP and cGMP will relax both vascular smooth and bronchial smooth muscle. Selective PDE isozyme inhibition represents a novel subcellular mechanism by which increses in cAMP or cGMP and subsequent vaso- or broncho-relaxation may be achieved. Moreover, a component of positive inotropy may be retained, dependent upon the isozyme or tissue source specificity of an inhibitor. Thus, development of PDE isozyme inhibitors represents novel approaches for the discovery of agents useful for treating hypertension, congestive heart failure or asthma. For example, compounds having essentially high PDE III inhibitory activity are expected to have cardiotonic and vasodilatory (antihypertensive) activity. PDE isozymes (peak I and III) are isolated from canine aortic smooth, ventricular or tracheal smooth muscle sources by DEAE - cellulose column chromatography. Inhibition of both peaks by a putative inhibitor from any of these sources is quantitated. If ≥50% inhibition is detected at 30 μM, then an IC50 value and corresponding 95% confidence limits for both peaks is determined.
(§2) The procedures for the separation of the isozymes of PDE from animal tissue and the testing of the compounds of the invention for phosphodiesterase inhibition are essentially those described by Weishaar et al., Biochem. Pharmacol. 35:787-800 (1986) and Thompson et al., Adv. Cyclic Nucleotide Res. 10:69-92. Initial screening of test compounds with both peak I and peak III PDE isozymes is done at a concentration of 10, 30 or 100 μm, and each assay is performed in triplicate for each inhibitor. The IC50 values (concentration causing 50% inhibition) are then calculated from concentration-response curves as described by Tallarida and Murray, Manual of Pharmacologic Calculations with Computer Programs, Procedure 8, Graded Dose-Response, pp. 14-19, Springer-Verlag, New York, 1981.

For experiment [2], the target named is PDE I. The experiment can be described thus: phosphodiesterase inhibition, PDE I (peak I PDE). The note with it: for IC50: peak I PDE.
Source text: as §1, §2

Experiment [3] relates to PDE I. Put plainly: phosphodiesterase inhibition, PDE I (peak I PDE).
In experiment [4] the target is T1, PDE III. The experiment can be described thus: phosphodiesterase inhibition, PDE III (peak III PDE). The note with it: read-out: Percent Inhibition PDE III.

For `O=c1[nH]c2cc(-c3ccncc3)c(C(F)(F)F)nc2[nH]1` [1(e), 1,3-Dihydro-6-(4-pyridinyl)-5-trifluoromethyl-2H-imidazo[4,5-b]pyridin-2-one], the values for the IC50 at PDE III [1] and against PDE I [2] were 23 nM and 52900 nM, respectively.
For the compound `O=c1[nH]c2cc(-c3cc[n+]([O-])cc3)c(C(F)(F)F)nc2[nH]1` [1(f), 1,3-Dihydro-6-(4-pyridinyl)-5-trifluoromethyl-2H-imidazo[4,5-b]pyridin-2-one N-(py)-oxide], it took 29 nM to reach half-maximal inhibition against PDE III [1] (IC50). In the experiment with PDE I [3] (at 1 μM), the “Percent Inhibition PDE I” value is recorded as 0%.
For the compound `O=c1[nH]c2cc(-c3ccncc3)c(C(F)(F)C(F)(F)F)nc2[nH]1` [2(d), 1,3-Dihydro-6-(4-pyridinyl)-5-pentafluoroethyl-2H-imidazo[4,5-b]pyridin-2-one], the IC50 – broadly, the concentration that inhibits the measured activity by half – at PDE III [1] came out at 1800 nM; against PDE I [2], 12000 nM.
For `O=c1[nH]c2cc(-c3ccnc4ccccc34)c(C(F)(F)F)nc2[nH]1` [3(e), 1,3-Dihydro-6-(4-quinolinyl)-5-trifluoromethyl-2H-imidazo[4,5-b]pyridine-2-one], the inhibition (as a rule, the drop in the measured response relative to a control, in per cent) at 1 µM on PDE III [4] turned out to be 9%. Moreover, the “Percent Inhibition PDE I” value with PDE I [2] (at 100 μM) amounted to 4%.
Regarding `Cc1nc2[nH]c(=O)[nH]c2cc1-c1ccccc1` [4(c), 1,3-Dihydro-5-methyl-6-phenyl-2H-imidazo[4,5-b]pyridin-2-one], half-maximal inhibition at PDE III [1] (IC50) required 270 nM. Also, the “Percent Inhibition PDE I” value in the experiment on PDE I [3] (at 1000 μM) is listed as 38%.
Compound `Cc1nc2[nH]c(=O)[nH]c2cc1-c1ccc([N+](=O)[O-])cc1` [Example 5, 1,3-Dihydro-5-methyl-6-(4-nitrophenyl)-2H-imidazo[4,5-b]pyridin-2-one] registered an IC50 against PDE III [1] of 9 nM. Besides, the “Percent Inhibition PDE I” value in the experiment on PDE I [3] (at 300 μM) was 35%.
In the case of `Cc1nc2[nH]c(=O)[nH]c2cc1-c1ccc(N)cc1` [Example 6, 6-(4-Aminophenyl)-1,3-dihydro-5-methyl-2H-imidazo[4,5-b]pyridin-2-one], the results for the IC50 against PDE III [1] and against PDE I [2] were 500 nM and 45000 nM, respectively.
Taken in the same sequence, the figures for `Cc1nc2[nH]c(=O)[nH]c2cc1-c1ccc(NC(=O)C(F)(F)F)cc1` [Example 7, 1,3-Dihydro-5-methyl-6-[4-(trifluoroacetylamino)phenyl]-2H-imidazo[4,5-b]pyridin-2-one] were 630 nM and 63600 nM.
Regarding `CC(=O)Nc1ccc(-c2cc3[nH]c(=O)[nH]c3nc2C)cc1` [Example 8, 6-[4-(Acetylamino)phenyl]-1,3-dihydro-5-methyl-2H-imidazo[4,5-b]pyridin-2-one], at PDE III [1], the IC50 was determined as 620 nM. Moreover, the “Percent Inhibition PDE I” value in the experiment with PDE I [2] (at 30 μM) is given as 22%.
With `Cc1nc2[nH]c(=O)[nH]c2cc1-c1ccc(NS(C)(=O)=O)cc1` [Example 9, 1,3-Dihydro-6-[4-(methanesulfonylamino)phenyl]-5-methyl-2H-imidazo[4,5-b]pyridin-2-one], the IC50 on PDE III [1] came to 470 nM; on PDE I [2] it was 45000 nM.
Turning to `CCCCS(=O)(=O)Nc1ccc(-c2cc3[nH]c(=O)[nH]c3nc2C)cc1` [Example 10, 6-[4-(Butanesulfonylamino)phenyl]-1,3-dihydro-5-methyl-2H-imidazo[4,5-b]pyridin-2-one], the IC50 at PDE III [1] was found to be 94 nM; against PDE I [2] it was 9000 nM.
Turning to `CCCCC(=O)Nc1ccc(-c2cc3[nH]c(=O)[nH]c3nc2C)cc1` [Example 11, 6-[4-(Butanecarbonylamino)phenyl]-1,3-dihydro-5-methyl-2H-imidazo[4,5-b]pyridin-2-one], at PDE III [4], the inhibition at 1 µM stood at 37%. Further, the “Percent Inhibition PDE I” value in the experiment with PDE I [3] (at 1 μM) was 0%.
Regarding `Cc1ccc(S(=O)(=O)Nc2ccc(-c3cc4[nH]c(=O)[nH]c4nc3C)cc2)cc1` [Example 12, 1,3-Dihydro-5-methyl-6-[4-(p-toluenesulfonylamino)phenyl]-2H-imidazo[4,5-b]pyridin-2-one], at PDE III [4], the inhibition at 1 µM stood at 64%. The “Percent Inhibition PDE I” value with PDE I [3] (at 1 μM) is listed as 13%.
In the case of `CCCCCCS(=O)(=O)Nc1ccc(-c2cc3[nH]c(=O)[nH]c3nc2C)cc1` [Example 13, 1,3-Dihydro-6-[4-(hexanesulfonylamino)phenyl]-5-methyl-2H-imidazo[4,5-b]pyridin-2-one], the figures for the IC50 against PDE III [1] and against PDE I [2] were 53 nM and 5600 nM, respectively.
Take `Cc1nc2[nH]c(=O)[nH]c2cc1-c1ccc(NS(=O)(=O)c2cccc3cccnc23)cc1` [Example 14, 1,3-Dihydro-6-[4-(8-quinolinylsulfonylamino)phenyl]-5-methyl-2H-imidazo[4,5-b]pyridin-2-one]: the results for the IC50 at PDE III [1] and against PDE I [2] were 55 nM and 1600 nM, respectively.
Taken in the same sequence, the figures for `CCCNC(=O)Nc1ccc(-c2cc3[nH]c(=O)[nH]c3nc2C)cc1` [Example 15, 1,3-Dihydro-6-[4-(N'-propylureido)phenyl]-5-methyl-2H-imidazo[4,5-b]pyridin-2-one] were 104 nM and 319000 nM.
